Results reported in article PMC5677370, “Structure-based nuclear import mechanism of histones H3 and H4 mediated by Kap123” (eLife, 2017).

How the values were obtained:
wild-type Kl Kap123 = experiment: SPR binding of wild-type or mutant H3_1–35-/H4_1–21-NLS peptides to immobilized wild-type Kap123; parameters: species or system Kluyveromyces lactis; details: 10 mM HEPES, 150 mM NaCl, 7°C, relative to wild-type; for affinity of mutant H3-NLS toward Kap123: wild-type Kap123 immobilized 7500 RU on CM5, H3_1–35-NLS peptides 0-5 μM
Experimental: Figure 5. Surface plasmon resonance analysis of wild-type Kl Kap123 in the presence of wild-type or mutants of H3_1–35-/H4_1–21-NLSs. The biacore diagrams (a) and the normalized bar graph (c) of wild-type Kap123 in the presence of wild-type or mutant H3_1-35-NLS. The wild-type Kap123 was immobilized on a CM5 chip with 7500 RU and the wild-type or mutant H3_1–35-NLS peptides (H3_K14A, H3_K14Q, H3_K23A, H3_K23Q, or H3_K14Q/K23Q) were injected at different concentrations (0, 0.07, 0.15, 0.32, 0.65, 1.25, 2.5, and 5 μM). The biacore diagrams (b) and the bar graph (d) of wild-type Kap123 in the presence of wild-type or mutant H4_1–21-NLS. The wild-type Kap123 was immobilized on a CM5 chip with 7116 RU and the wild-type or mutant H4_1–21-NLS peptides (H4_K16A or H4_K5Q/K12Q) were injected at different concentrations (0, 0.32, 0.62, 1.25, 2.5, 5, and 10 μM). The H4K16Q peptide was used at different concentrations (0, 0.7, 1.5, 3, 6, 12, and 25 uM). See details in Materials and method section. Red-colored sensorgrams represent positive controls of wild-type Kap123, which were injected 2000 nM wild-type Kap123 before and after sample injection (a–b). The relative binding between wild-type Kap123 and mutant peptides was measured at five different concentrations for generating error bars (c–e). (e) The normalized affinity bar graph of H3-/H4-NLS toward wild-type Kap123 was derived from (a) and (b).
A CM5 chip (GE healthcare) was coated with streptavidin in 10 mM acetate pH 4.5 at a flow rate of 5 μl/min. The biotinylated C-terminal histone H3 peptide (residues 1–35) was synthesized (Anygen, South Korea) and immobilized on the CM5 chip coated with streptavidin with a flow rate of 5 μl/min in the binding buffer (10 mM HEPES, 150 mM NaCl). Various concentrations of the wild-type and mutant Kl Kap123 protein (see figure legends of Figures 3 and 4) were prepared in the binding buffer with 2 mM TCEP and then injected at the flow rate of 30 μl/min in the binding buffer using a T200 instrument (GE Healthcare) at 7°C. After injecting the sample, the chip was regenerated by a regeneration buffer (1 M NaCl and 20 mM NaOH in binding buffer) at a flow rate of 30 μl/min. For measuring the interaction of wild-type Kl Kap123 and mutant histone H3 or H4 peptides, 0.1 μM Kap123 diluted in10mM acetate pH 4.0 was immobilized 7100 RU on the CM5 chip at flow rate of 5 μl/min. Peptides of histone H3 or H4 mutants were injected at a flow rate of 30 μl/min in the binding buffer and the binding was monitored at various concentrations (0, 0.31, 0.62, 1.25, 2.5, 5 and 10 uM) at 7°C. For the H4K16Q peptide, Kap 123 was immobilized with 5100 RU on CM5 chip, and H4K16Q and wild-type H4 peptides (0, 0.7, 1.5, 3, 6, 12 and 25 uM) were injected as analytes at a flow rate of 30 μl/min at 7°C.

Kapβ2 = details: ref Soniat et al., 2016; read-out: KD of Kapβ2-H3_1–47-NLS interaction; cited from earlier work
Description: Accumulated evidence illustrates that cytosolic histones H3 and H4 are acetylated prior to nuclear import and believed to play a role in the translocation process mediated by Kap123 ([Sobel et al., 1994]; [Sobel et al., 1995]; [Loyola et al., 2006]; [Jasencakova et al., 2010]; [Ma et al., 1998]; [Blackwell et al., 2007]; [Kuo et al., 1996]).

Kap123-H3-NLS = experiment: Competition pull-down: pre-assembled MBP-Kap123-H3-NLS challenged by H4-NLS; format: binding; details: amylose affinity pull-down, MBP-tagged Kap123 pre-assembled with H3_1–59-Sumo, challenged by H4_1–48-Sumo (wild-type or mutant) 0x, 1x, 2x, 5x, 10x; 30 mM Tris–HCl pH 8.0, 50 mM NaCl, 1 mM DTT, 0.01% NP-40; 90 mins at 4°C; three independent assays
Experimental: Figure 6. Competition assay of H3- and H4-NLSs (wild-type H4 and mutant H4^K5Q/K12Q) toward Kap123 association. Competition of H3_1–59- and H4_1–48-Sumo (a) as well as H3_1–59- and H4_1–48 ^K5Q/K12Q-Sumo (b) toward Kap123 binding was monitored by amylose affinity pull-downs using MBP-tagged Kap123. A fixed amount of the pre-assembled complex of MBP-tagged Kap123 and H4_1–48-Sumo was challenged by an increasing amount of H3_1–59-Sumo. The same competition assay was done by using pre-incubated MBP-tagged Kap123-H3_1–59-Sumo and gradually increasing the amount of H4_1–48-Sumo either with wild-type (a) or mutant (b), K5Q/K12Q) H4 sequence. (c–d) The normalized bar graphs of remaining H3_1–59- and H4_1–48-NLS-Sumo after challenged with increased amounts of H4_1–48- and H3_1–59-NLS-Sumo (0x, 1x, 2x, 5x, and 10x) toward Kap123, respectively. Either H4_1–48-NLS-Sumo (c) or H4_1–48^K5Q/K12Q-NLS-Sumo (d) was used for the H3_1–59-NLS-Sumo competition. Three independent competition assays were carried out and the band intensity was measured to calculate the error bar. Figure 6—figure supplement 1. […] (a) Competition of H3_1–59-Sumo using either H4_1–48-Sumo or H4_1–48 ^K5Q/K8Q/K12Q-Sumo toward Kap123 binding was monitored by amylose affinity pull-downs using MBP-tagged Kap123. […] Three independent competition assays were carried out and the band intensity was measured to calculate the error bar. […]

[1] = tested on: nuclear translocation of the H4-NLS-GFP reporter; details: GFP reporter assay; ref Blackwell et al., 2007; cited from earlier work

H3 K14A
affinity of mutant H3-NLS toward Kap123 (wild-type Kl Kap123; five concentrations): decreased the affinity toward Kap123

H3 K14Q
affinity of mutant H3-NLS toward Kap123 (wild-type Kl Kap123; five concentrations): decreased the affinity toward Kap123

H3 K23A
affinity of mutant H3-NLS toward Kap123 (wild-type Kl Kap123; five concentrations): decreased the affinity toward Kap123

H3 K23Q
affinity of mutant H3-NLS toward Kap123 (wild-type Kl Kap123; five concentrations): decreased the affinity toward Kap123

H3_1–47-NLS: histone H3 residues 1–47 NLS bound to Kapβ2
Kd (Kapβ2): 77.1 nM

H4-NLS^K5Q/K8Q/K12Q: tri-acetylation mimic mutant of H4-NLS (H4_1–48-Sumo in competition assay)
competition with H3-NLS for Kap123 (Kap123-H3-NLS): no longer competed with H3-NLS in Kap123 interaction
nuclear translocation of H4-NLS-GFP reporter, acetylation mimic [1]: dramatically reduced the nuclear translocation

H4-NLS^K16A
affinity of mutant H4-NLS toward Kap123 (wild-type Kl Kap123; wild-type Kap123 immobilized 7116 RU on CM5, H4_1–21-NLS peptides 0-10 μM, five concentrations): reduced the affinity toward Kap123 although the effect was mild

H4-NLS^K16Q
affinity of H4 K16Q toward Kap123 (wild-type Kl Kap123; Kap123 immobilized 5100 RU on CM5, H4K16Q 0-25 uM): reduced the affinity toward Kap123 although the effect was mild

H4_1–48^K5Q/K12Q-Sumo: C-terminal Sumo-tagged histone H4_1–48, K5Q/K12Q
competition with H3-NLS for Kap123 (Kap123-H3-NLS): loss of competition
